Measurements from ChEMBL document CHEMBL1130408, “Repromicin derivatives with potent antibacterial activity against Pasteurella multocida” (1997).
Values after ≈ are worked out from the molar mass of the structure shown.

Tests used:
Format in all cases: functional
Pasteurella multocida = experiment: Minimum inhibitory concentration required to inhibit Pasteurella multocida 59A006 in vitro
Mus musculus [1] = species: Mus musculus; experiment: Protected dose at which the test compound protects 50% of challenged mice from death owing to the Pasteurella multocida infection; details: read-out: PD50
Mus musculus [2] = species: Mus musculus; experiment: Protected dose which protects 50% of challenged mice from death owing to the Pasteurella multocida (59A006) infection; details: read-out: PD50

Row | SMILES | MIC (Pasteurella multocida) [µg/mL] | ED50 (Mus musculus [1]) [mg/kg] | ED50 (Mus musculus [2]) [mg/kg]
1 | CC[C@H]1OC(=O)[C@H](C)[C@@H](O[C@H]2C[C@@](C)(OC)[C@@H](O)[C@H](C)O2)[C@H](C)[C@@H](O[C@@H]2O[C@H](C)C[C@H](N(C)C)[C@H]2O)[C@](C)(O)C[C@@H](C)CN(C)[C@H](C)[C@@H](O)[C@]1(C)O [AZITHROMYCIN] | 0.05 (≈ 0.0668 µM) | 16 | 
2 | CC[C@H]1OC(=O)C[C@@H](O)[C@H](C)[C@@H](O[C@@H]2O[C@H](C)[C@@H](O)[C@H](N(C)C)[C@H]2O)[C@@H](CCN2C[C@H](C)C[C@H](C)C2)C[C@@H](C)C(=O)/C=C/C(C)=C/[C@@H]1CO[C@@H]1O[C@H](C)[C@@H](O)[C@@H](OC)[C@H]1OC [TILMICOSIN] | 1.56 (≈ 1.79 µM) | 99 | 
3 | CC[C@H]1OC(=O)C[C@@H](O)[C@H](C)[C@@H](O[C@@H]2O[C@H](C)[C@@H](O)[C@@H](N(C)C)[C@H]2O)[C@@H](CC=O)C[C@@H](C)C(=O)/C=C/C(C)=C/[C@@H]1CO[C@@H]1O[C@H](C)[C@@H](O)[C@@H](OC)[C@H]1OC | 3.13 (≈ 4.05 µM) | 66 | 
4 | CC[C@H]1OC(=O)CC(O)[C@H](C)[C@@H](O[C@@H]2O[C@H](C)C[C@H](N(C)C)[C@H]2O)[C@@H](CCNC(CO)CO)C[C@@H](C)C(=O)/C=C/C(C)=C/[C@@H]1C (some centres not stated) | 0.39 (≈ 0.609 µM) |  | 31
5 | CC[C@H]1OC(=O)CC(O)[C@H](C)[C@@H](O[C@@H]2O[C@H](C)C[C@H](N(C)C)[C@H]2O)[C@@H](CCNC(C)(C)C)C[C@@H](C)C(=O)/C=C/C(C)=C/[C@@H]1C (some centres not stated) | 0.39 (≈ 0.626 µM) |  | 150
6 | CC[C@H]1OC(=O)CC(O)[C@H](C)[C@@H](O[C@@H]2O[C@H](C)C[C@H](N(C)C)[C@H]2O)[C@@H](CCN(C)CC)C[C@@H](C)C(=O)/C=C/C(C)=C/[C@@H]1C (some centres not stated) | 0.2 (≈ 0.328 µM) |  | 150
7 | CC[C@H]1OC(=O)CC(O)[C@H](C)[C@@H](O[C@@H]2O[C@H](C)C[C@H](N(C)C)[C@H]2O)[C@@H](CCN2CCCCC2)C[C@@H](C)C(=O)/C=C/C(C)=C/[C@@H]1C (some centres not stated) | 0.2 (≈ 0.315 µM) |  | 150
8 | CC[C@H]1OC(=O)CC(O)[C@H](C)[C@@H](O[C@@H]2O[C@H](C)C[C@H](N(C)C)[C@H]2O)[C@@H](CCN(C)C)C[C@@H](C)C(=O)/C=C/[C@]2(C)O[C@H]2[C@@H]1C (some centres not stated) | 0.39 (≈ 0.638 µM) |  | > 150
9 | CC[C@H]1OC(=O)CC(O)[C@H](C)[C@@H](O[C@@H]2O[C@H](C)C[C@H](N(C)C)[C@H]2O)[C@@H](CCN(C)CCCN(C)C(=O)[C@H](C)N)C[C@@H](C)C(=O)/C=C/C(C)=C/[C@@H]1C (some centres not stated) | 0.39 (≈ 0.539 µM) |  | 5
10 | CC[C@H]1OC(=O)CC(O)[C@H](C)[C@@H](O[C@@H]2O[C@H](C)C[C@H](N(C)C)[C@H]2O)[C@@H](CCN(C)C)C[C@@H](C)C(=O)/C=C/C(C)=C/[C@@H]1C (some centres not stated) | 0.39 (≈ 0.656 µM) |  | 150
11 | CC[C@H]1OC(=O)CC(O)[C@H](C)[C@@H](O[C@@H]2O[C@H](C)C[C@H](N(C)C)[C@H]2O)[C@@H](CCN2CCCCCC2)C[C@@H](C)C(=O)/C=C/[C@]2(C)O[C@H]2[C@@H]1C (some centres not stated) | 0.2 (≈ 0.301 µM) |  | 150
